Reference: US20110275813A1, “Bicylic 1,3-diones and Their Use as Insecticides, Acaricides and/or Fungicides” (Bayer Cropscience AG, priority 2009, published 2011)

Legend:
Assay type in all cases: in vivo
[1] = test system: Spodoptera frugiperda; test: Spodoptera frugiperda test (SPODFR spray application); conditions: 168 h, sprayed maize leaf sections, after 7 days
Excerpt: Spodoptera frugiperda—Test (SPODFR Spray Application)
(§1) Solvent: 78.0 parts by weight acetone • 1.5 parts by weight dimethylformamide
(§2) Emulsifier: 0.5 parts by weight alkylarylpolyglycolether
To produce a suitable preparation of the active compound, 1 part by weight of active compound is mixed with the stated amount of solvent and emulsifier, and the concentrate is dilutes with emulsifier-containing water to the desired concentration. Maize (Zea mais) leaf sections are sprayed with a preparation of the active ingredient of the desired concentration. Once dry, the leaf sections are infested with fall armyworm larvae (Spodoptera frugiperda).
After 7 days mortality in % is determined. 100% means that all caterpillars have been killed and 0% means that none of the caterpillars have been killed.

[2] = test system: Sphaerotheca fuliginea; test: Sphaerotheca test (cucumber)/preventive; conditions: preventive, 7 days after inoculation
Description: Sphaerotheca Test (Cucumber)/Preventive
Solvent: 49 parts by weight of N,N-Dimethylformamide
Emulsifier: 1 part by weight of Alkylarylpolyglycolether
To produce a suitable preparation of active compound, 1 part by weight of active compound is mixed with the stated amounts of solvent and emulsifier, and the concentrate is diluted with water to the desired concentration.
To test for preventive activity, young plants are sprayed with the preparation of active compound at the stated rate of application. One day after this treatment, the plants are inoculated with an aqueous spore suspension of Sphaerotheca fuliginea. Then the plants are placed in a greenhouse at approximately 23° C. and a relative atmospheric humidity of approximately 70%.
The test is evaluated 7 days after the inoculation. 0% means an efficacy which corresponds to that of the control, while an efficacy of 100% means that no disease is observed.

[3] = test system: Myzus persicae; test: Myzus persicae test (MYZUPE spray application); conditions: 144 h, sprayed Chinese cabbage leaf-disks, after 6 days
Description: Myzus persicae—Test; (MYZUPE Spray Application)
as §1, §2
(§3) To produce a suitable preparation of active compound, 1 part by weight of active compound is mixed with the stated amount of solvent and emulsifier, and the concentrate is diluted with emulsifier-containing water to the desired concentration. Chinese cabbage (Brassica pekinesis) leaf-disks infected with all instars of the green peach aphid (Myzus persicae), are sprayed with a preparation of the active ingredient at the desired concentration.
After 6 days mortality in % is determined. 100% means that all aphids have been killed; 0% means that none of the aphids have been killed.

[4] = test system: Phaedon cochleariae; test: Phaedon cochleariae test (PHAECO spray application); conditions: 168 h, sprayed Chinese cabbage leaf-disks, after 7 days
Description: Phaedon cochleariae—Test; (PHAECO Spray Application)
Solvent: 78.0 parts by weight of acetone • • 1.5 parts by weight of dimethylformamide
Emulsifier: 0.5 parts by weight of alkylaryl polyglycolether
To produce a suitable preparation of active compound, 1 part by weight of active compound is mixed with the stated amount of solvent and emulsifier, and the concentrate is diluted with emulsifier-containing water to the desired concentration. Chinese cabbage (Brassica pekinesis) leaf-disks are sprayed with a preparation of the active ingredient of the desired concentration. Once dry, the leaf disks are infested with mustard beetle larvae (Phaedon cochleariae).
After 7 days mortality in % is determined. 100% means that all beetle larvae have been killed and 0% means that none of the beetle larvae have been killed.

[5] = test system: Tetranychus urticae; test: Tetranychus urticae test; OP-resistant (TETRUR spray application); conditions: 120 h, spray on infested French beans, after 5 days
Description: Tetranychus urticae—Test; OP-Resistant (TETRUR Spray Application)
as §1, §2
as §3, with “French beans (Phaseolus vulgaris) which are heavily infested” for “Chinese cabbage (Brassica pekinesis) leaf-disks infected”, “stages” for “instars”, “two spotted spidermite (Tetranychus urticae),” for “green peach aphid (Myzus persicae),”
After 5 days mortality in % is determined. 100% means that all spider mites have been killed and 0% means that none of the spider mites have been killed.

Row | SMILES | mortality at 100 g/ha ([1]; 100 g/ha) | Efficacy in % ([2]; 250 ppm) | mortality at 500 g/ha [3] | mortality at 500 g/ha ([1]; 500 g/ha) | mortality at 500 g/ha [4] | Efficacy in % ([2]; 500 ppm) | mortality at 500 g/ha ([5]; 500 g/ha) | mortality at 20 g/ha ([5]; 20 g/ha)
1 | Cc1ccc(-c2ccc(Cl)cc2)cc1C1=C(O)C2(C)CCC(C1=O)C2(C)C (stereo not drawn) [T 115] | ≥ 80% | 80% | – | – | – | – | – | –
2 | Cc1ccc(-c2ccc(Cl)cc2)cc1C1=C(O)[C@H]2CC[C@H](C2)C1=O [Compound T1] | – | – | ≥ 80% | ≥ 80% | ≥ 80% | 95% | ≥ 80% | –
3 | CC12CCC(C(=O)C(c3cc(-c4ccc(Cl)cc4)ccc3Cl)=C1O)C2(C)C (stereo not drawn) [T 114] | – | – | – | – | – | 90% | – | ≥ 80%
